System: mouse peritoneal macrophages
Assay: PAF and lyso-PAF production in LPS-primed, A23187-stimulated peritoneal macrophages
Type: cell-based
Conditions: 5 μM A23187 5 min
Protocol: RAW-mLPCAT2 cells and peritoneal macrophages were seeded in 24-well plates (4 × 10^6 cells/well) for 24 or 2 h, respectively, before treatment. RAW-mLPCAT2 cells were stimulated with 5 μM A23187 for 5 min after a 1 h treatment with the compounds. Peritoneal macrophages were preincubated with 100 ng/ml LPS for 18 h, treated with the compounds for 1 h, and stimulated with 5 μM A23187 for 5 min. To analyze cellular PAF levels, lipids were extracted with 500 μl methanol containing d4-PAF and d4-lyso-PAF as internal standards. Each sample was submitted to solid phase extraction using an Oasis HLB 96-well cartridge cluster (Waters), and PAF and lyso-PAF were measured by LC-MS/MS as previously described ([13]).
Chromatography was performed using an Acquity™ Ultra-performance LC system (Waters) coupled to a TSQ Vantage triple stage quadrupole mass spectrometer (Thermo Scientific) with a HESI-II electrospray ionization source ([13]). Phospholipids were separated on BEH C8 columns (1.7 μm, 2.1 × 30 mm or 1 × 100 mm; Waters) for the analysis of assay products or the composition of cellular PAF and lyso-PAF, respectively. The mobile phase contained 20 mM aqueous ammonium bicarbonate and acetonitrile. The extracts from peritoneal macrophages were separated on a Kinetex C8 column (1.7 μm, 2.1 × 100 mm; Phenomenex, Torrance, CA) by a gradient elution with 0.05% formic acid-water and acetonitrile, using the Nexera X2 system and LCMS-8080 mass spectrometer (Shimadzu, Kyoto, Japan) ([13]). Lyso-PAF, d4-PAF, and d31-DPPC were identified by the choline fragment (m/z 184) as a product ion of selected reaction monitoring in the positive ion mode. Nonlabeled PAF and d4-16:0/20:4 alkyl-PC were determined by fatty acid anions of sn-2 composition (m/z 59 and 303, respectively) in the negative ion mode. […] Signal intensities were determined relative to the internal standard or as the percentage of the positive control.
The effect of TSI-01 on PAF and lyso-PAF biosynthesis was evaluated using thioglycollate-elicited mouse peritoneal macrophages. […]

CC(C)OC(=O)c1ccc(N2C(=O)C(Cl)=C(Cl)C2=O)cc1 [TSI-01, propan-2-yl 4-(3,4-dichloro-2,5-dioxopyrrol-1-yl)benzoate]
PAF levels (60 μM TSI-01, LPS 18 h, compound 1 h): below the detection limit
PAF levels in A23187-stimulated cells (LPS 100 ng/ml 18 h, TSI-01 1 h): decreased
lyso-PAF levels (LPS 100 ng/ml 18 h, TSI-01 1 h): not changed

— publication PMC4076079, “Selective inhibitors of a PAF biosynthetic enzyme lysophosphatidylcholine acyltransferase 2” (Journal of Lipid Research, 2014)
